From PubChem BioAssay (NCI)
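Briefly, cells in 96-well plates were exposed to five compound concentrations for 48 h, and endpoints were estimated by linear interpolation. GI50 marks 50% less growth. The concentration for full growth arrest is given as TGI.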

What was measured:
Test in all cases: inhibition of tumour cell growth, NCI panel, 48 h
[1] = system: 786-0 renal
[2] = system: A498 renal
[3] = system: A549 NSCLC
[4] = system: ACHN renal
[5] = system: BT-549 breast
[6] = system: CAKI-1 renal
[7] = system: CCRF-CEM leukemia
[8] = system: COLO 205 colon
[9] = system: DU-145 prostate
[10] = system: EKVX NSCLC
[11] = system: HCC-2998 colon
[12] = system: HCT-116 colon
[13] = system: HCT-15 colon
[14] = system: HL-60(TB) leukemia
[15] = system: HOP-62 NSCLC
[16] = system: HOP-92 NSCLC
[17] = system: HS 578T breast
[18] = system: HT29 colon
[19] = system: IGROV1 ovarian
[20] = system: K-562 leukemia
[21] = system: KM12 colon
[22] = system: LOX IMVI melanoma
[23] = system: M14 melanoma
[24] = system: MCF7 breast
[25] = system: MDA-MB-231 breast
[26] = system: MDA-MB-435
[27] = system: MOLT-4 leukemia
[28] = system: NCI-H226 lung
[29] = system: NCI-H460 lung
[30] = system: NCI-H522 lung
[31] = system: NCI/ADR-RES ovarian
[32] = system: OVCAR-3 ovarian
[33] = system: OVCAR-4 ovarian
[34] = system: OVCAR-5 ovarian
[35] = system: OVCAR-8 ovarian
[36] = system: PC-3 prostate
[37] = system: RPMI-8226 leukemia
[38] = system: RXF 393 renal
[39] = system: SF-268 CNS
[40] = system: SF-295 CNS
[41] = system: SF-539 CNS
[42] = system: SK-MEL-2 melanoma
[43] = system: SK-MEL-28 melanoma
[44] = system: SK-MEL-5 melanoma
[45] = system: SK-OV-3 ovarian
[46] = system: SN12C renal
[47] = system: SNB-19 CNS
[48] = system: SNB-75 CNS
[49] = system: SR leukemia
[50] = system: SW-620 colon
[51] = system: T-47D breast
[52] = system: TK-10 renal
[53] = system: U251 CNS
[54] = system: UACC-257 melanoma
[55] = system: UACC-62 melanoma
[56] = system: UO-31 renal

SMILES: COC(=O)c1ccc(C2SC(C)C(=O)N2NC(=O)C(O)c2ccccc2)cc1 (configuration not stated)
- GI50 [1]: > 100 µM
- TGI [1]: > 100 µM
- GI50 [2]: > 100 µM
- TGI [2]: > 100 µM
- GI50 [3]: > 100 µM
- TGI [3]: > 100 µM
- GI50 [4]: > 100 µM
- TGI [4]: > 100 µM
- GI50 [5]: > 100 µM
- TGI [5]: > 100 µM
- GI50 [6]: > 100 µM
- TGI [6]: > 100 µM
- GI50 [7]: > 100 µM
- TGI [7]: > 100 µM
- GI50 [8]: > 100 µM
- TGI [8]: > 100 µM
- GI50 [9]: > 100 µM
- TGI [9]: > 100 µM
- GI50 [10]: > 100 µM
- TGI [10]: > 100 µM
- GI50 [11]: > 100 µM
- TGI [11]: > 100 µM
- GI50 [12]: > 100 µM
- TGI [12]: > 100 µM
- GI50 [13]: > 100 µM
- TGI [13]: > 100 µM
- GI50 [14]: > 100 µM
- TGI [14]: > 100 µM
- GI50 [15]: > 100 µM
- TGI [15]: > 100 µM
- GI50 [16]: > 100 µM
- TGI [16]: > 100 µM
- GI50 [17]: > 100 µM
- TGI [17]: > 100 µM
- GI50 [18]: > 100 µM
- TGI [18]: > 100 µM
- GI50 [19]: > 100 µM
- TGI [19]: > 100 µM
- GI50 [20]: > 100 µM
- TGI [20]: > 100 µM
- GI50 [21]: > 100 µM
- TGI [21]: > 100 µM
- GI50 [22]: > 100 µM
- TGI [22]: > 100 µM
- GI50 [23]: > 100 µM
- TGI [23]: > 100 µM
- GI50 [24]: > 100 µM
- TGI [24]: > 100 µM
- GI50 [25]: > 100 µM
- TGI [25]: > 100 µM
- GI50 [26]: > 100 µM
- TGI [26]: > 100 µM
- GI50 [27]: > 100 µM
- TGI [27]: > 100 µM
- GI50 [28]: > 100 µM
- TGI [28]: > 100 µM
- GI50 [29]: > 100 µM
- TGI [29]: > 100 µM
- GI50 [30]: > 100 µM
- TGI [30]: > 100 µM
- GI50 [31]: > 100 µM
- TGI [31]: > 100 µM
- GI50 [32]: > 100 µM
- TGI [32]: > 100 µM
- GI50 [33]: > 100 µM
- TGI [33]: > 100 µM
- GI50 [34]: > 100 µM
- TGI [34]: > 100 µM
- GI50 [35]: > 100 µM
- TGI [35]: > 100 µM
- GI50 [36]: > 100 µM
- TGI [36]: > 100 µM
- GI50 [37]: > 100 µM
- TGI [37]: > 100 µM
- GI50 [38]: > 100 µM
- TGI [38]: > 100 µM
- GI50 [39]: > 100 µM
- TGI [39]: > 100 µM
- GI50 [40]: > 100 µM
- TGI [40]: > 100 µM
- GI50 [41]: > 100 µM
- TGI [41]: > 100 µM
- GI50 [42]: > 100 µM
- TGI [42]: > 100 µM
- GI50 [43]: > 100 µM
- TGI [43]: > 100 µM
- GI50 [44]: > 100 µM
- TGI [44]: > 100 µM
- GI50 [45]: > 100 µM
- TGI [45]: > 100 µM
- GI50 [46]: > 100 µM
- TGI [46]: > 100 µM
- GI50 [47]: > 100 µM
- TGI [47]: > 100 µM
- GI50 [48]: > 100 µM
- TGI [48]: > 100 µM
- GI50 [49]: > 100 µM
- TGI [49]: > 100 µM
- GI50 [50]: > 100 µM
- TGI [50]: > 100 µM
- GI50 [51]: > 100 µM
- TGI [51]: > 100 µM
- GI50 [52]: > 100 µM
- TGI [52]: > 100 µM
- GI50 [53]: > 100 µM
- TGI [53]: > 100 µM
- GI50 [54]: > 100 µM
- TGI [54]: > 100 µM
- GI50 [55]: > 100 µM
- TGI [55]: > 100 µM
- GI50 [56]: > 100 µM
- TGI [56]: > 100 µM
